Laboratory results as given in ChEMBL document CHEMBL4028831, “Improvement of hERG-ROMK index of spirocyclic ROMK inhibitors through scaffold optimization and incorporation of novel pharmacophores” (Bioorg Med Chem Lett, 2017).
Activity calls are given as the source filed them. The calls are words filed in the database; no cut-off is given here.

How the values were obtained:
[1] = Volume of distribution at steady state in Beagle dog at 1 mg/kg, iv; assay type: ADME, organism-based, Canis lupus familiaris; conditions: in vivo, read-out: Vdss
[2] = Clearance in Beagle dog at 1 mg/kg, iv; assay type: ADME, organism-based, Canis lupus familiaris; conditions: in vivo
[3] = target: T1, ATP-sensitive inward rectifier potassium channel 1 (Homo sapiens, UniProt P48048); test: Inhibition of human ROMK expressed in CHO cells at -70 mV holding potential after 6 mins by whole cell patch clamp Qpatch method; assay type: cell-based
T1 sequence (P48048 whole entry): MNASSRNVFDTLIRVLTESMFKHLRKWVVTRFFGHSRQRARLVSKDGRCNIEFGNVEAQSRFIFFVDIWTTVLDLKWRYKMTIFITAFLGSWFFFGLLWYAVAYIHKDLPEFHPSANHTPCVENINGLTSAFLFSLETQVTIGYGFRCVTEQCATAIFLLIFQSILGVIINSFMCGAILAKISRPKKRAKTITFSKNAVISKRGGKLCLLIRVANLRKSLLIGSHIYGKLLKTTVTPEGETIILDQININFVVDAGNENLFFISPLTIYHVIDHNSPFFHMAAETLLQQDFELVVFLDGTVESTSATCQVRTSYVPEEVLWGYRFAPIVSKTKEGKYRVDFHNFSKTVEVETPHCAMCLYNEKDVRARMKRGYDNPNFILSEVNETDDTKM

[4] = Clearance in Wistar Han rat at 0.5 mg/kg, iv or 1 mg/kg, po; assay type: ADME, organism-based; conditions: in vivo
[5] = Oral bioavailability in Wistar Han rat at 1 mg/kg; assay type: ADME, organism-based; conditions: in vivo
Rattus norvegicus [6] = test: Dose normalized AUC in Wistar Han rat at 1 mg/kg, po; assay type: ADME, organism-based; conditions: in vivo
[7] = target: T1, ATP-sensitive inward rectifier potassium channel 1; test: Inhibition of human ROMK channel expressed in HEK293 cells after 30 mins by FLIPR based thallium flux assay; assay type: cell-based
[8] = Volume of distribution at steady state in Wistar Han rat at 0.5 mg/kg, iv or 1 mg/kg, po; assay type: ADME, organism-based; conditions: in vivo, read-out: Vdss
[9] = Half life in Wistar Han rat at 0.5 mg/kg, iv or 1 mg/kg, po; assay type: ADME, organism-based; conditions: in vivo
[10] = Half life in Beagle dog at 1 mg/kg, iv; assay type: ADME, organism-based, Canis lupus familiaris; conditions: in vivo
Homo sapiens = organism: Homo sapiens; test: Selectivity ratio of IC50 for human ERG expressed in HEK293 cells to IC50 for human ROMK expressed in HEK293 cells; assay type: cell-based
[11] = target: Voltage-gated inwardly rectifying potassium channel KCNH2 (Homo sapiens, UniProt Q12809); test: Displacement of [35S]MK499 from human ERG expressed in HEK293 cells
Sequence of Voltage-gated inwardly rectifying potassium channel KCNH2 (Q12809 whole entry): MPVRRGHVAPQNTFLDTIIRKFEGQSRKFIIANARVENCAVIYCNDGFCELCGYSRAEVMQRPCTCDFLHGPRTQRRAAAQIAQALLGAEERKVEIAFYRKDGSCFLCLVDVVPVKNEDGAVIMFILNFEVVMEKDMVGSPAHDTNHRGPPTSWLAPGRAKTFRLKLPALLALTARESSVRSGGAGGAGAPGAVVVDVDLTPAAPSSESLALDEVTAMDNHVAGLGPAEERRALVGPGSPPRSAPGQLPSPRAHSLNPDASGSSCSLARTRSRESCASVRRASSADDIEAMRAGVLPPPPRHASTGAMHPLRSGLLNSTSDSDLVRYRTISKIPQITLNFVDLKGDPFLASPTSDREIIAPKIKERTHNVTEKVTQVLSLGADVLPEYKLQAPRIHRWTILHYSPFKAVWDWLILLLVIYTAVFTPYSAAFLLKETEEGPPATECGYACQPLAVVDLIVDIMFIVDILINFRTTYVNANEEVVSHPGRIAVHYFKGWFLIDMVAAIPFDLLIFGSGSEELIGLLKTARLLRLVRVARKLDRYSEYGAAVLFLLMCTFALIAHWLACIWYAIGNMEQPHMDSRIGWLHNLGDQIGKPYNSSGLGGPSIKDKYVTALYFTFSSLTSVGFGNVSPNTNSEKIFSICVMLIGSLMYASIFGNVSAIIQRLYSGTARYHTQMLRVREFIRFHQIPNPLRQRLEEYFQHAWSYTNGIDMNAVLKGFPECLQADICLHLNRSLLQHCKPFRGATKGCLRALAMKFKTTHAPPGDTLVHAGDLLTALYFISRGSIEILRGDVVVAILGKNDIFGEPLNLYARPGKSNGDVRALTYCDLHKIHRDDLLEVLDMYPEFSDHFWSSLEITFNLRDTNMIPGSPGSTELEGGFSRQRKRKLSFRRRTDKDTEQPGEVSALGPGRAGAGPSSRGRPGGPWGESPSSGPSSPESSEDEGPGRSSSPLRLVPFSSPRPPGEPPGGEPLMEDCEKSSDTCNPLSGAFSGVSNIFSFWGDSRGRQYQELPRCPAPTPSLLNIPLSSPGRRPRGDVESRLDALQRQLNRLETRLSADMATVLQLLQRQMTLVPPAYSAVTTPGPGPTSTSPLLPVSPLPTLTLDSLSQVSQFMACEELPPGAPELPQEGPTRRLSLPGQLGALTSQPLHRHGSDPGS

Rattus norvegicus [12] = test: Antihypertensive activity in rat spontaneous hypertensive model assessed as induction of natriuresis at 3 mg/kg, po qd measured after 3 days; assay type: functional, organism-based
Rattus norvegicus [13] = test: Antihypertensive activity in rat spontaneous hypertensive model assessed as induction of kaliuresis at 3 mg/kg, po qd measured after 3 days; assay type: functional, organism-based
Rattus norvegicus [14] = test: Antihypertensive activity in rat spontaneous hypertensive model assessed as change in systolic blood pressure at 3 mg/kg, po qd measured after 3 days; assay type: functional
Rattus norvegicus [15] = test: Antihypertensive activity in rat spontaneous hypertensive model assessed as induction of diuresis at 3 mg/kg, po qd measured after 3 days; assay type: functional, organism-based
Rattus norvegicus [16] = test: Antihypertensive activity in rat spontaneous hypertensive model assessed as change in systolic blood pressure at 25 mg/kg, po qd measured after 3 days; assay type: functional
[17] = Clearance in rat at 0.5 mg/kg, iv; conditions: in vivo

With COc1nccc(N2CCC3(CCN(C[C@H](O)c4ccc5c(c4C)COC5=O)CC3)C2=O)n1 as the compound, how does the Vd [1] read?
Its Vd is 0.7 L/kg.

What about the clearance [2] of the same compound?
Its clearance is 9.7 mL/min/kg.

And the IC50 [3]?
The IC50 was 5 nM.

What about the clearance [4] of the same compound?
Its clearance is 7.8 mL/min/kg.

And the bioavailability [5]?
Its bioavailability is 80%.

What about the AUC/dose (Rattus norvegicus [6]) of the same compound?
Its AUC/dose is 3.8 µM·kg·h/mg.

What about the IC50 [7] of the same compound?
The IC50 was 14 nM.

And the Vd [8]?
The Vd was 1.8 L/kg.

And the half-life [9]?
Its half-life is 4.1 h.

And the half-life [10]?
Its half-life is 1 h.

With Cc1c([C@@H](O)CN2CCC3(CC2)CCN(c2ccc(=O)n(C4CCCC4)n2)C3=O)ccc2c1COC2=O as the compound, how does the IC50 [7] read?
Its IC50 is 41 nM.

And the Ratio IC50 (Homo sapiens)?
Its Ratio IC50 is 329.

And the IC50 [11]?
The IC50 was 13500 nM.

For Cc1c([C@@H](O)CN2CCC3(CC2)CCN(c2ccns2)C3)ccc2c1COC2=O, which IC50 [7] is on record?
The IC50 was 27 nM.

With Cc1c([C@@H](O)CN2CCC3(CC2)CN(c2ccns2)C(=O)O3)ccc2c1COC2=O as the compound, how does the IC50 [7] read?
The IC50 was 5100 nM.

Which Vd [1] does the source give for COc1nsc(N2CCC3(CCN(C[C@H](O)c4ccc5c(c4C)COC5=O)CC3)C2=O)n1 here?
The Vd was 1.7 L/kg.

And the Activity (Rattus norvegicus [12])?
The Activity was “Active”.

What about the clearance [2] of the same compound?
Its clearance is 24.4 mL/min/kg.

What about the clearance [4] of the same compound?
The clearance was 9.6 mL/min/kg.

What about the bioavailability [5] of the same compound?
Its bioavailability is 47%.

And the AUC/dose (Rattus norvegicus [6])?
Its AUC/dose is 1.8 µM·kg·h/mg.

What about the Activity (Rattus norvegicus [13]) of the same compound?
The Activity was “inactive”.

What about the Activity (Rattus norvegicus [14]) of the same compound?
The Activity was -23 mmHg.

What about the Vd [8] of the same compound?
The Vd was 3 L/kg.

What about the half-life [9] of the same compound?
Its half-life is 4.7 h.

And the Activity (Rattus norvegicus [15])?
The Activity was “Active”.

And the half-life [10]?
The half-life was 1.3 h.

Which clearance [4] does the source give for Cc1c([C@@H](O)CN2CCC3(CC2)CCN(c2ccncc2)C3=O)ccc2c1COC2=O here?
The clearance was 128 mL/min/kg.

What about the bioavailability [5] of the same compound?
Its bioavailability is 37%.

And the AUC/dose (Rattus norvegicus [6])?
The AUC/dose was 0.11 µM·kg·h/mg.

What about the Vd [8] of the same compound?
The Vd was 21.5 L/kg.

What about the half-life [9] of the same compound?
The half-life was 2 h.

For Cc1cc(=O)n(C)nc1N1CCC2(CCN(C[C@H](O)c3ccc4c(c3C)COC4=O)CC2)C1=O, which IC50 [7] is on record?
The IC50 was 1050 nM.

What does the source list for Cc1nsc(N2CCC3(CCN(C[C@H](O)c4ccc5c(c4C)COC5=O)CC3)C2)n1?
Ratio IC50 (Homo sapiens): 17; IC50 [11]: 4200 nM

With Cc1c([C@@H](O)[C@H](C)N2CCC3(CCN(c4ccc(=O)n(C)n4)C3=O)CC2)ccc2c1COC2=O as the compound, how does the IC50 [11] read?
The IC50 was > 60000 nM.

Which IC50 [7] does the source give for Cc1c([C@@H](O)CN2CCC3(CC2)CCN(c2cnn(C)c(=O)c2)C3=O)ccc2c1COC2=O here?
Its IC50 is 180 nM.

Which IC50 [7] does the source give for Cc1c([C@@H](O)CN2CCC3(CC2)CCN(c2ccn(C)c(=O)c2)C3=O)ccc2c1COC2=O here?
The IC50 was 7600 nM.

Which Activity (Rattus norvegicus [16]) does the source give for NS(=O)(=O)c1cc2c(cc1Cl)NCNS2(=O)=O [HYDROCHLOROTHIAZIDE] here?
The Activity was -7 mmHg.

For Cc1c([C@@H](O)CN2CCC3(CC2)CCN(c2ccc(S(C)(=O)=O)cn2)C3)ccc2c1COC2=O, which clearance [17] is on record?
Its clearance is 24.2 mL/min/kg.

For CCn1nc(N2CCC3(CCN(C[C@H](O)c4ccc5c(c4C)COC5=O)CC3)C2=O)ccc1=O, which Ratio IC50 (Homo sapiens) is on record?
Its Ratio IC50 is 99.

And the IC50 [11]?
Its IC50 is 7600 nM.

With Cc1c([C@@H](O)CN2CCC3(CC2)CCN(c2ccc(=O)n(C(F)F)n2)C3=O)ccc2c1COC2=O as the compound, how does the IC50 [7] read?
The IC50 was 130 nM.

And the Ratio IC50 (Homo sapiens)?
The Ratio IC50 was 147.

And the IC50 [11]?
Its IC50 is 19100 nM.

For Cc1nsc(N2CCC3(CCN(C[C@H](O)c4ccc5c(c4C)COC5=O)CC3)C2=O)n1, which Activity (Rattus norvegicus [12]) is on record?
Its Activity is “Active”.

And the IC50 [3]?
Its IC50 is 8 nM.

And the clearance [4]?
Its clearance is 41 mL/min/kg.

What about the bioavailability [5] of the same compound?
Its bioavailability is 106%.

And the AUC/dose (Rattus norvegicus [6])?
Its AUC/dose is 1 µM·kg·h/mg.

What about the Activity (Rattus norvegicus [13]) of the same compound?
The Activity was “inactive”.

What about the Activity (Rattus norvegicus [14]) of the same compound?
The Activity was -10 mmHg.

What about the Vd [8] of the same compound?
Its Vd is 4.2 L/kg.

What about the half-life [9] of the same compound?
Its half-life is 1.9 h.

What about the Activity (Rattus norvegicus [15]) of the same compound?
Its Activity is “Active”.

Which results are given for COc1cc(N2CCC3(CCN(C[C@H](O)c4ccc5c(c4C)COC5=O)CC3)C2=O)ccn1?
clearance [4]: 20.8 mL/min/kg; bioavailability [5]: 66%; AUC/dose (Rattus norvegicus [6]): 1.2 µM·kg·h/mg; Vd [8]: 5 L/kg; half-life [9]: 4.1 h

Which results are given for Cn1nc(N2CCC3(CCN(C[C@H](O)c4ccc(-n5cnnn5)nn4)CC3)C2=O)ccc1=O?
IC50 [7]: 570 nM; Ratio IC50 (Homo sapiens): 5; IC50 [11]: 3100 nM

For Cc1c([C@@H](O)CN2CCC3(CC2)CCN(c2cn(C)c(=O)cn2)C3=O)ccc2c1COC2=O, which IC50 [11] is on record?
Its IC50 is > 60000 nM.

Which IC50 [3] does the source give for Cc1cc(N2CCC3(CCN(C[C@H](O)c4ccc5c(c4C)COC5=O)CC3)C2=O)sn1 here?
Its IC50 is 12 nM.

And the clearance [4]?
Its clearance is 23 mL/min/kg.

What about the bioavailability [5] of the same compound?
The bioavailability was 45%.

What about the AUC/dose (Rattus norvegicus [6]) of the same compound?
The AUC/dose was 0.73 µM·kg·h/mg.

What about the IC50 [7] of the same compound?
Its IC50 is 18 nM.

And the Vd [8]?
The Vd was 3.2 L/kg.

What about the half-life [9] of the same compound?
The half-life was 2.4 h.

What does the source list for Cc1nc(-n2cnnn2)ccc1[C@@H](O)CN1CCC2(CC1)CCN(c1ccc(=O)n(C)n1)C2=O?
Ratio IC50 (Homo sapiens): 66; IC50 [11]: 17200 nM

Which results are given for Cc1nccc(N2CCC3(CCN(C[C@H](O)c4ccc5c(c4C)COC5=O)CC3)C2=O)n1?
Activity (Rattus norvegicus [12]): Active; clearance [4]: 30.3 mL/min/kg; bioavailability [5]: 120%; AUC/dose (Rattus norvegicus [6]): 1.6 µM·kg·h/mg; Activity (Rattus norvegicus [13]): inactive; IC50 [7]: 190 nM; Activity (Rattus norvegicus [14]): -11 mmHg; Vd [8]: 4.4 L/kg; half-life [9]: 2.6 h; Activity (Rattus norvegicus [15]): Active

Which Activity (Rattus norvegicus [12]) does the source give for Cc1c([C@@H](O)CN2CCC3(CC2)CCN(c2ccns2)C3=O)ccc2c1COC2=O here?
Its Activity is “Active”.

And the Activity (Rattus norvegicus [13])?
The Activity was “inactive”.

And the Activity (Rattus norvegicus [14])?
The Activity was -6 mmHg.

And the Activity (Rattus norvegicus [15])?
Its Activity is “Active”.

For Cc1c([C@@H](O)CN2CCC3(CC2)CN(c2ccc(=O)n(C)n2)C3)ccc2c1COC2=O, which IC50 [7] is on record?
The IC50 was > 2000 nM.

Which results are given for Cc1c([C@@H](O)CN2CCC3(CC2)CCN(c2cc(-c4ccccc4)no2)C3=O)ccc2c1COC2=O?
Ratio IC50 (Homo sapiens): 0.11; IC50 [11]: 54 nM
